Source: patent US10273248B2, “Glucose uptake inhibitors” (Kadmon Corporation LLC, priority 2015, dated 2019)

These molecules were tested on glycolysis in HT1080 cells (assay: Glycolysis assay: oligomycin plus compound, cellular ATP by Cell Titer Glo). Conditions: Homo sapiens, HT-1080, 1 h, 10 μM oligomycin, one hour, class symbols.
Format: cell-based
Source text: Therefore, an assay was developed that utilizes the combination of the glucose uptake inhibitors disclosed herein with oligomycin, a well-characterized inhibitor of ATP synthase. Because oligomycin inhibits ATP derived from oxidative phosphorylation, any remaining ATP production is derived from glycolysis. By reading out cellular ATP levels using the Promega Cell Titer Glo kit, the extent of glycolysis inhibition by the glucose uptake inhibitors disclosed herein can be assessed. […] Utilizing this experimental set-up, the IC50 of glycolysis inhibition for each compound can be determined.
Determination of Glucose Uptake/GLUT Activity (Glycolysis Assay):
HT1080 cells (as well as other cell types) were plated to confluency in 96-well plates. Cells were exposed to the combination of 10 μM Oligomycin (to block mitochondrial-derived ATP) and the glucose uptake inhibitors disclosed herein for one-hour, after which glycolytically-derived ATP was measured with the Cell Titer-Glo assay kit (Promega). Dose-response curves of the glucose uptake inhibitors disclosed herein were used to determine the IC50 for GLUT activity.

| Compound | IC50 [nM] |
| --- | --- |
| CC(C)NC(=O)COc1cccc(-c2nc3c(c(Nc4ccc(-c5cn[nH]c5)cc4)n2)CN(C(=O)C(C)C)CC3)c1 [Example 149, 2-(3-(4-((4-(1H-pyrazol-4-yl)phenyl)amino)-6-isobutyryl-5,6,7,8-tetrahydropyrido[4,3-d]pyrimidin-2-yl)phenoxy)-N-isopropylacetamide] | 10 to 100 |
| CC(C)CNC(=O)COc1cccc(-c2nc(Nc3ccc(-c4cn[nH]c4)cc3)c3ncsc3n2)c1 [Example 68, 2-(3-(7-((4-(1H-pyrazol-4-yl)phenyl)amino)thiazolo[5,4-d]pyrimidin-5-yl)phenoxy)-N-isobutylacetamide] | 251 to 500 |
| CC(C)NC(=O)C(C)Oc1cccc(-c2nc3c(c(Nc4ccc(-c5cn[nH]c5)cc4)n2)COC3)c1 (centres unmarked) [Example 185, 2-(3-(4-((4-(1H-pyrazol-4-yl)phenyl)amino)-5,7-dihydrofuro[3,4-d]pyrimidin-2-yl)phenoxy)-N-isopropylpropanamide] | > 1000 |
| O=C(COc1cccc(-c2nc(Nc3ccc(-c4cn[nH]c4)cc3)c3sccc3n2)c1)NC1CC1 [Example 20] | 501 to 1000 |
| CC(C)N1CCc2nc(-c3cccc(OCC(=O)NC4CCC4)c3)nc(Nc3ccc(-c4cn[nH]c4)cc3)c2C1 [Example 159, 2-(3-(4-((4-(1H-pyrazol-4-yl)phenyl)amino)-6-isopropyl-5,6,7,8-tetrahydropyrido[4,3-d]pyrimidin-2-yl)phenoxy)-N-cyclobutylacetamide] | 251 to 500 |
| CC(C)NC(=O)COc1cccc(-c2nc(Nc3ccc(-c4cn[nH]c4)cc3)c3ncsc3n2)c1 [Example 65, 2-(3-(7-((4-(1H-pyrazol-4-yl)phenyl)amino)thiazolo[5,4-d]pyrimidin-5-yl)phenoxy)-N-isopropylacetamide] | 251 to 500 |
| O=C(CN1CCOCC1)Nc1cccc(-c2nc(Nc3ccc(-c4cn[nH]c4)cc3)c3sccc3n2)c1 [Example 8, N-(3-(4-((4-(1H-pyrazol-4-yl)phenyl)amino)thieno[3,2-d]pyrimidin-2-yl)phenyl)-2-morpholinoacetamide] | > 1000 |
| CC(C)(C)NC(=O)COc1cc(-c2nc3c(c(Nc4ccc(-c5cn[nH]c5)cc4)n2)COC3)ccc1F [Example 96, 2-(5-(4-((4-(1H-pyrazol-4-yl)phenyl)amino)-5,7-dihydrofuro[3,4-d]pyrimidin-2-yl)-2-fluorophenoxy)-N-(tert-butyl)acetamide] | > 1000 |
| CCC(CC)NC(=O)COc1cccc(-c2nc(Nc3ccc(-c4cn[nH]c4)cc3)c3sccc3n2)c1 [Example 181, 2-(3-(4-((4-(1H-pyrazol-4-yl)phenyl)amino)thieno[3,2-d]pyrimidin-2-yl)phenoxy)-N-(pentan-3-yl)acetamide] | 251 to 500 |
| CC(C)NC(=O)COc1cccc(-c2nc(Nc3ccc(-c4cn[nH]c4)cc3)c3cnccc3n2)c1 [Example 134, 2-(3-(4-((4-(1H-pyrazol-4-yl)phenyl)amino)pyrido[4,3-d]pyrimidin-2-yl)phenoxy)-N-isopropylacetamide] | 10 to 100 |
| O=C(Nc1cccc(-c2nc3c(c(Nc4ccc(-c5cn[nH]c5)cc4)n2)COC3)c1)c1cncc(F)c1 [Example 75, N-(3-(4-((4-(1H-pyrazol-4-yl)phenyl)amino)-5,7-dihydrofuro[3,4-d]pyrimidin-2-yl)phenyl)-5-fluoronicotinamide] | 10 to 100 |
| CC(C)NC(=O)COc1cccc(-c2nc(Nc3ccc4[nH]ncc4c3)c3sccc3n2)c1 [Example 15] | > 1000 |
| CC(C)CNC(=O)COc1cccc(-c2nc3c(c(Nc4ccc(-c5cn[nH]c5)cc4)n2)CNCC3)c1 [Example 161, 2-(3-(4-((4-(1H-pyrazol-4-yl)phenyl)amino)-5,6,7,8-tetrahydropyrido[4,3-d]pyrimidin-2-yl)phenoxy)-N-isobutylacetamide] | 251 to 500 |
| CC(C)CNC(=O)COc1cccc(-c2nc(Nc3ccc(-c4cn[nH]c4)cc3)c3c(cnn3C)n2)c1 [Example 61, 2-(3-(7-((4-(1H-pyrazol-4-yl)phenyl)amino)-1-methyl-1H-pyrazolo[4,3-d]pyrimidin-5-yl)phenoxy)-N-isobutylacetamide] | > 1000 |
| O=C(COc1cccc(-c2nc3c(c(Nc4ccc(-c5cn[nH]c5)cc4)n2)COC3)c1)NC1CC(F)(F)C1 [Example 82, 2-(3-(4-((4-(1H-pyrazol-4-yl)phenyl)amino)-5,7-dihydrofuro[3,4-d]pyrimidin-2-yl)phenoxy)-N-(3,3-difluorocyclobutyl)acetamide] | 101 to 250 |
| CCC(C)NC(=O)COc1cccc(-c2nc3c(c(Nc4ccc(-c5cn[nH]c5)cc4)n2)COCC3)c1 (centres unmarked) [Example 103, 2-(3-(4-((4-(1H-pyrazol-4-yl)phenyl)amino)-7,8-dihydro-5H-pyrano[4,3-d]pyrimidin-2-yl)phenoxy)-N-(sec-butyl)acetamide] | 10 to 100 |

| Compound | IC50 [nM] |
| --- | --- |
| CC(=O)N1CCc2nc(-c3cccc(OCC(=O)NC(C)(C)C)c3)nc(Nc3ccc(-c4cn[nH]c4)cc3)c2C1 [Example 114, 2-(3-(4-((4-(1H-pyrazol-4-yl)phenyl)amino)-6-acetyl-5,6,7,8-tetrahydropyrido[4,3-d]pyrimidin-2-yl)phenoxy)-N-(tert-butyl)acetamide] | 10 to 100 |
| Cn1cnc2c(Nc3ccc(-c4cn[nH]c4)cc3)nc(-c3cccc(OCC(=O)NC4CC4)c3)nc21 [Example 22] | > 1000 |
| CC(C)NC(=O)COc1cccc(-c2nc3c(c(Nc4ccc(-c5cn[nH]c5)cc4)n2)CSC3)c1 [Example 84, 2-(3-(4-((4-(1H-pyrazol-4-yl)phenyl)amino)-5,7-dihydrothieno[3,4-d]pyrimidin-2-yl)phenoxy)-N-isopropylacetamide] | 251 to 500 |
| CC(=O)N1CCc2nc(-c3cccc(OCC(=O)NC4CCCC4)c3)nc(Nc3ccc(-c4cn[nH]c4)cc3)c2C1 [Example 145, 2-(3-(4-((4-(1H-pyrazol-4-yl)phenyl)amino)-6-acetyl-5,6,7,8-tetrahydropyrido[4,3-d]pyrimidin-2-yl)phenoxy)-N-cyclopentylacetamide] | 10 to 100 |
| CC(C)NC(=O)COc1cccc(-c2nc(Nc3ccc(-c4cn[nH]c4)cc3)c3cccnc3n2)c1 [Example 52, 2-(3-(4-((4-(1H-pyrazol-4-yl)phenyl)amino)pyrido[2,3-d]pyrimidin-2-yl)phenoxy)-N-isopropylacetamide] | 501 to 1000 |
| CC(C)NC(=O)COc1cncc(-c2nc(Nc3ccc(-c4cn[nH]c4)cc3)c3ccsc3n2)c1 [Example 182, 2-((5-(4-((4-(1H-pyrazol-4-yl)phenyl)amino)thieno[2,3-d]pyrimidin-2-yl)pyridin-3-yl)oxy)-N-isopropylacetamide] | > 1000 |
| CC(C(=O)Nc1cccc(-c2nc(Nc3ccc(-c4cn[nH]c4)cc3)c3occc3n2)c1)N1CCOCC1 (centres unmarked) [Example 172, N-(3-(4-((4-(1H-pyrazol-4-yl)phenyl)amino)furo[3,2-d]pyrimidin-2-yl)phenyl)-2-morpholinopropanamide] | 101 to 250 |
| Cn1cnc2c(Nc3ccc(-c4cn[nH]c4)cc3)nc(-c3cccc(NC(=O)CN4CCOCC4)c3)nc21 [Example 6, N-(3-(6-((4-(1H-pyrazol-4-yl)phenyl)amino)-9-methyl-9H-purin-2-yl)phenyl)-2-morpholinoacetamide] | > 1000 |
| CC(C(=O)Nc1cccc(-c2nc(Nc3ccc(-c4cn[nH]c4)cc3)c3ncccc3n2)c1)N1CCOCC1 (centres unmarked) [Example 50, N-(3-(4-((4-(1H-pyrazol-4-yl)phenyl)amino)pyrido[3,2-d]pyrimidin-2-yl)phenyl)-2-morpholinopropanamide] | 501 to 1000 |
| CCC(C)(C)NC(=O)COc1cccc(-c2nc3c(c(Nc4ccc(-c5cn[nH]c5)cc4)n2)CN(C(C)=O)CC3)c1 [Example 148, 2-(3-(4-((4-(1H-pyrazol-4-yl)phenyl)amino)-6-acetyl-5,6,7,8-tetrahydropyrido[4,3-d]pyrimidin-2-yl)phenoxy)-N-(tert-pentyl)acetamide] | 10 to 100 |
| CCCNC(=O)COc1cccc(-c2nc(Nc3ccc(-c4cn[nH]c4)cc3)c3sccc3n2)c1 [Example 41, 2-(3-(4-((4-(1H-pyrazol-4-yl)phenyl)amino)thieno[3,2-d]pyrimidin-2-yl)phenoxy)-N-propylacetamide] | > 1000 |
| Cn1cnc2c(Nc3ccc(-c4cn[nH]c4)cc3)nc(-c3cccc(OCC(=O)NC4CCCC4)c3)nc21 [Example 30] | 101 to 250 |
| CCN1CCc2nc(-c3cccc(OCC(=O)NC4CCC4)c3)nc(Nc3ccc(-c4cn[nH]c4)cc3)c2C1 [Example 160, 2-(3-(4-((4-(1H-pyrazol-4-yl)phenyl)amino)-6-ethyl-5,6,7,8-tetrahydropyrido[4,3-d]pyrimidin-2-yl)phenoxy)-N-cyclobutylacetamide] | 251 to 500 |
| Fc1cncc(CNc2cccc(-c3nc4c(c(Nc5ccc(-c6cn[nH]c6)cc5)n3)COC4)c2)c1 [Example 92, N-(4-(1H-pyrazol-4-yl)phenyl)-2-(3-(((5-fluoropyridin-3-yl)methyl)amino)phenyl)-5,7-dihydrofuro[3,4-d]pyrimidin-4-amine] | 501 to 1000 |
| CC(C(=O)Nc1cccc(-c2nc3c(c(Nc4ccc(-c5cn[nH]c5)cc4)n2)COC3)c1)N1CCOCC1 (centres unmarked) [Example 171, N-(3-(4-((4-(1H-pyrazol-4-yl)phenyl)amino)-5,7-dihydrofuro[3,4-d]pyrimidin-2-yl)phenyl)-2-morpholinopropanamide] | 501 to 1000 |

Same assay, conditions: Homo sapiens, HT-1080, 1 h, 10 μM oligomycin, one hour, number printed instead of class

| Compound | IC50 [nM] |
| --- | --- |
| CC(C)C(=O)N1CCc2nc(-c3cccc(OCC(=O)NC4CCCC4)c3)nc(Nc3ccc(-c4cn[nH]c4)cc3)c2C1 [Example 150, 2-(3-(4-((4-(1H-pyrazol-4-yl)phenyl)amino)-6-isobutyryl-5,6,7,8-tetrahydropyrido[4,3-d]pyrimidin-2-yl)phenoxy)-N-cyclopentylacetamide] | 28 |
